# Assay results taken from paper PMC6385854, “Structural insights reveal a recognition feature for tailoring hydrocarbon stapled-peptides against the eukaryotic translation initiation factor 4E protein” (Chemical Science, 2019).
# Read-outs that look alike come from different tables or passages of the source. Numbered stars: 1 amine (or outer) side, 2 acyl side, 3 side chain; on linkers, the order of the positions; unused ones are H or OH. Bridge positions count the residues as written; N and C are the ends. Square brackets hold non-standard residues; d marks the D form. Peptide text beside a SMILES is read from it. ξ: configuration not given here. ξαMeNle(6-ylidene) = CC(CCCC=[*:3])(N[*:1])C(=O)[*:2]; R5 = C=CCCC[C@@](C)(N)C(=O)O; S5 = C=CCCC[C@](C)(N)C(=O)O
# What was measured:
# [1] = molecular target: T1, Human recombinant eIF4E protein (Homo sapiens, UniProt P06730); assay: Surface plasmon resonance binding of stapled-peptides to immobilized eIF4E; details: SPR; for kon: eIF4E (His tag or w/o tag) amine-coupled on CM5 chip, saturated with m7GTP, peptides 3 μM to 1.372 nM, 60 s injection, 120 s dissociation
# T1 construct: V28-V217; made in house; host or cells: Escherichia coli BL21 (DE3)
# T1 sequence (P06730 28-217): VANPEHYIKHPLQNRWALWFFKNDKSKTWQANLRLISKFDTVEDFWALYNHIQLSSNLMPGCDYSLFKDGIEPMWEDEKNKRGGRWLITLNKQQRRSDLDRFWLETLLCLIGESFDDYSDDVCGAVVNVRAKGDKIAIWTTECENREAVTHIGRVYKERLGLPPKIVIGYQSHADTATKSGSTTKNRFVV
# Experimental: Human recombinant eIF4E protein with His tag (eIF4E-His) and without tag (eIF4E w/o tag) were separately immobilized on a CM5 sensor chip through amine coupling using the same protocol. Each flow cell of a CM5 sensor chip was first activated by a 7 min injection (10 μl min^–1) of freshly prepared 1 : 1 50 mM NHS : 200 mM EDC. Diluted eIF4E in NaAc (pH 5.0), with m^7GTP present in ≥2 : 1 ratio to saturate eIF4E, was injected over the sensor chip surface at a flow rate of 10 μl min^–1. The remaining active coupling sites were blocked with a 7 min injection of 1 M ethanolamine at 10 μl min^–1. The immobilization level is ∼2500 RU for eIF4E w/o tag and ∼5000 RU for eIF4E-His separately. Running buffer for immobilization was HBS-EP+ (10 mM HEPES, 150 mM NaCl, 3 mM EDTA, 0.05% surfactant P20).
# Before measurement, the system was primed with assay running buffer HBS-EP+ (10 mM HEPES, 150 mM NaCl, 3 mM EDTA, 0.05% surfactant P20), with 1 mM DTT and 3% DMSO. Peptides were prepared by 3-fold dilution from high concentration to low concentration (3 μM to 1.372 nM). Peptides at increasing concentrations were injected over the chip surface for 60 s. The exposure was followed by a dissociation phase of 120 s. The flow rate was 30 μl min^–1. Surface regeneration was done using 2 M NaCl 30 s at 30 μl min^–1. Each reaction cycle ended with 50% DMSO extra wash. The solvent correction curve was setup by adding varying amounts of 100% DMSO to 1.03× running buffer to generate a range of DMSO solutions (2.000%, 2.286%, 2.571%, 2.857%, 3.143%, 3.429%, 3.714% and 4.000% respectively). After removing reference (blank buffer) signal and adding solvent correction, kinetics and/or steady-state parameters were calculated with Biacore T200 evaluation software ver. 3.0.
# eIF4E = details: small molecule inhibitor of the eIF4E/eIF4G interaction; cited from earlier work
# Source text: We have previously used structure-based rational design and optimization strategies to develop the first generation of hydrocarbon stapled-peptides against eIF4E.[20] These are the only compounds currently reported in the literature that are able to bind to the protein-binding interface of eIF4E with nanomolar affinity. […] Moreover, it was recently shown that 4EGI-1 binds to a non-canonical site on eIF4E and allosterically regulates the binding prop ... || The previously optimized 12mer stapled-peptide (sTIP-04: ^1KKRYSR*QLL*L^12)[20] (Fig. 1) was used as a template for the derivation of two different i, i + 4 hydrocarbon stapled-peptides: (i) (sTIP-05: ^1KKRYSR*QLL*F^12) with an L12F substitution at the C-terminus and, (ii) (sTIP-06: ^1RIIYSR*QLL*L^12) with an “RII^3” substitution at the N-terminus, based on the 4EBP protein epitope.[12] These derivatives were designed to incorporate different chemical features with the anticipation to induce favorable cellular activity. Both peptides were synthesized and their binding affinity for eIF4E was de ...
# [2] = Biacore T200, HBS-EP+ with 1 mM DTT, 3% DMSO, mean ± SEM from at-least two independent experiments, SEM, read-out: k on
# [3] = Biacore T200, eIF4E on CM5 chip, m7GTP, HBS-EP+ with 1 mM DTT, 3% DMSO, mean ± SEM from at-least two independent experiments, SEM, read-out: K D, binding affinity (kinetic KD) measured as a ratio of koff/kon
# [4] = Biacore T200, eIF4E on CM5 chip, m7GTP, HBS-EP+ with 1 mM DTT, 3% DMSO, mean ± SEM from at-least two independent experiments, SEM, read-out: k off
# [5] = mean ± SEM from at-least two independent experiments
# [6] = mean ± SEM from at-least two independent experiments, SEM
# [7] = Biacore T200, HBS-EP+ with 1 mM DTT, 3% DMSO, mean ± SEM from at-least two independent experiments, SEM
# [8] = Biacore T200, eIF4E on CM5 chip, m7GTP, HBS-EP+ with 1 mM DTT, 3% DMSO, mean ± SEM from at-least two independent experiments, SEM
# [9] = Biacore T200, eIF4E on CM5 chip, m7GTP, HBS-EP+ with 1 mM DTT, 3% DMSO, mean ± SEM from at-least two independent experiments, read-out: K D, binding affinity (kinetic KD) measured as a ratio of koff/kon
"kon [1, 2] [M⁻¹ s⁻¹]","Kd [1, 3] [nM]","koff [1, 4] [s⁻¹]","RT, Residence Time measured as 1/koff [1, 5] [s]","RT, Residence Time measured as 1/koff [1, 6] [s]","kon [1, 7]","K D, binding affinity (kinetic KD) measured as a ratio of koff/kon [1, 8] [nM]","koff [1, 8]",Compound,further results
–,–,–,6,6.0 ± 2.4,2.7 ± 0.7 × 10^8 M^–1 s^–1,0.8 ± 0.1,2.2 ± 0.8 × 10^–1 s^–1,Ac-RIIYSR*QLL*L-NH2 (sidechain bridge or staple) [sTIP-06],"Kd [1, 9]: 0.8 nM"
6.6e+06 ± 1e+11,4.3 ± 0.4,0.026 ± 5e-05,39,39.7 ± 3.1,–,–,–,CC(=O)N[C@@H](CCCCN)C(=O)N[C@@H](CCCCN)C(=O)N[C@@H](CCCNC(=N)N)C(=O)N[C@@H](Cc1ccc(O)cc1)C(=O)N[C@@H](CO)C(=O)N[C@@H](CCCNC(=N)N)C(=O)N[C@@H](CCC(=O)O)C(=O)N[C@@H](CCC(N)=O)C(=O)N[C@@H](CC(C)C)C(=O)N[C@@H](CC(C)C)C(=O)N[C@@]1(C)CCCC=CCCC[C@@](C)(C(N)=O)NC(=O)[C@H](CCCNC(=N)N)NC(=O)[C@H](CCC(N)=O)NC(=O)[C@H](Cc2ccccc2)NC1=O [sTIP-10] (Ac-KKRYSREQLL[S5]FQR[S5]-NH2; staple 11-15),–
650000 ± 3e+09,42.5 ± 0.5,0.028 ± 1e-05,–,36.3 ± 1.0,–,–,–,CC(=O)N[C@@H](CCCCN)C(=O)N[C@@H](CCCCN)C(=O)N[C@@H](CCCNC(=N)N)C(=O)N[C@@H](Cc1ccc(O)cc1)C(=O)N[C@@H](CO)C(=O)N[C@@H](CCCNC(=N)N)C(=O)N[C@@]1(C)CCCC=CCCC[C@@](C)(C(=O)N[C@@H](Cc2ccccc2)C(=O)N[C@@H](Cc2c[nH]c3ccccc23)C(N)=O)NC(=O)[C@H](CC(C)C)NC(=O)[C@H](CC(C)C)NC(=O)[C@H](CCC(N)=O)NC1=O [sTIP-07] (Ac-KKRYSR[S5]QLL[S5]FW-NH2; staple 7-11),–
420000 ± 1.9e+10,397 ± 131,0.14 ± 0.002,–,7.1 ± 1.0,–,–,–,CC(=O)N[C@@H](CCCNC(=N)N)C(=O)N[C@@H](Cc1ccc(O)cc1)C(=O)N[C@@H](CO)C(=O)N[C@@H](CCCNC(=N)N)C(=O)NC1(C)CCCC=CCCCC(C)(C(=O)N[C@@H](Cc2ccccc2)C(N)=O)NC(=O)[C@H](CC(C)C)NC(=O)[C@H](CC(C)C)NC(=O)[C@H](CCC(N)=O)NC1=O (some centres unmarked) [sTIP-12] (Ac-RYSR[ξαMeNle(6-ylidene)]QLL[ξαMeNle(6-ylidene)]F-NH2; staple 5-9),–
–,–,–,–,35.5 ± 1.3,6.2 ± 0.2 × 10^5 M^–1 s^–1,45.2 ± 0.6,2.8 ± 0.1 × 10^–2 s^–1,"Ac-RIIYSR*QLL*L&-NH2 (sidechain bridge or staple) [sTIP-08, 13mer stapled-peptide, sTIP-06 extended with Lys(ButPhI)]",–
340000 ± 1.6e+10,195 ± 49.7,0.058 ± 0.00014,–,18.3 ± 4.5,–,–,–,CC(=O)N[C@@H](CCCNC(=N)N)C(=O)N[C@@H](Cc1ccc(O)cc1)C(=O)N[C@@H](CO)C(=O)N[C@@H](CCCNC(=N)N)C(=O)N[C@@]1(C)CCCC=CCCC[C@@](C)(C(=O)N[C@@H](CC(C)C)C(=O)N[C@@H](Cc2ccccc2)C(=O)N[C@@H](CCCNC(=N)N)C(N)=O)NC(=O)[C@H](CC(C)C)NC(=O)[C@H](CC(C)C)NC(=O)[C@H](CCC(N)=O)NC1=O [sTIP-14] (Ac-RYSR[S5]QLL[S5]LFR-NH2; staple 5-9),Improvement in KD over sTIP-12 ([1]; relative to sTIP-12): 2 fold; Reduction in rate of dissociation (koff) over sTIP-12 ([1]; relative to sTIP-12): 2 fold

# Continued, compound first:
Compound,"kon [1, 2] [M⁻¹ s⁻¹]","Kd [1, 3] [nM]","koff [1, 4] [s⁻¹]","RT, Residence Time measured as 1/koff [1, 5] [s]","RT, Residence Time measured as 1/koff [1, 6] [s]","kon [1, 7]","K D, binding affinity (kinetic KD) measured as a ratio of koff/kon [1, 8] [nM]","koff [1, 8]",further results
CC(=O)N[C@@H](CCCCN)C(=O)N[C@@H](CCCCN)C(=O)N[C@@H](CCCNC(=N)N)C(=O)N[C@@H](Cc1ccc(O)cc1)C(=O)N[C@@H](CO)C(=O)N[C@@H](CCCNC(=N)N)C(=O)N[C@]1(C)CCCC=CCCC[C@](C)(C(=O)N[C@@H](Cc2ccccc2)C(N)=O)NC(=O)[C@H](CC(C)C)NC(=O)[C@H](CC(C)C)NC(=O)[C@H](CCC(N)=O)NC1=O [sTIP-05] (Ac-KKRYSR[R5]QLL[R5]F-NH2; staple 7-11),1.5e+07,6.6 ± 0.7,0.094 ± 8e-05,10,10.8 ± 0.9,–,–,–,–
"Ac-KRYSR*QLL*F-NH2 (sidechain bridge or staple) [sTIP-11, sTIP-05 with K1 deleted]",–,–,–,–,2.3 ± 0.6,2.3 ± 0.9 × 10^7 M^–1 s^–1,21.9 ± 3.8,4.6 ± 1.2 × 10^–1 s^–1,Binding to eIF4E in words (effect of N-terminal deletion from sTIP-05) ([1]; sequential deletion of the 1KKR3 sequence): little effect on binding
"O=C(O)C(Cc1ccccc1[N+](=O)[O-])=NNc1nc(-c2ccc(Cl)c(Cl)c2)cs1 (mixture of isomers) [Peptide 4EGI-1, 4EGI-1]",–,–,–,–,–,–,–,–,Affinity for eIF4E (eIF4E): micromolar range
CC(=O)N[C@@H](Cc1ccc(O)cc1)C(=O)N[C@@H](CO)C(=O)N[C@@H](CCCNC(=N)N)C(=O)NC1(C)CCCC=CCCCC(C)(C(=O)N[C@@H](Cc2ccccc2)C(N)=O)NC(=O)[C@H](CC(C)C)NC(=O)[C@H](CC(C)C)NC(=O)[C@H](CCC(N)=O)NC1=O (some centres unmarked) [sTIP-13] (Ac-YSR[ξαMeNle(6-ylidene)]QLL[ξαMeNle(6-ylidene)]F-NH2; staple 4-8),–,–,–,–,–,–,–,–,"Kd ([1]; Binding affinity estimated (micromolar range), range over two independent experiments): 4000 to 36000 nM; Kd ([1]; sensogram traces Fig. S2 E, F, experiment 1, read-out: Binding affinity estimated, first of two independent SPR experiments): 4000 nM; Kd ([1]; sensogram traces Fig. S2 E, F, experiment 2, read-out: Binding affinity estimated, second of two independent SPR experiments): 36000 nM"
Ac-RYSREQLL*FQR*-NH2 (sidechain bridge or staple) [sTIP-15],–,–,–,–,6.7 ± 4.1,4.2 ± 2.3 × 10^6 M^–1 s^–1,54.8 ± 6.4,2.4 ± 1.5 × 10^–1 s^–1,"Kd [1, 9]: 54 nM; Improvement in KD over sTIP-12 ([1]; relative to sTIP-12): 7 fold; Improvement in rate of association (kon) over sTIP-12 ([1]; relative to sTIP-12): 10 fold"
"O=C(O)c1ccc(N2C(=O)/C(=C\c3ccc(-c4ccc([N+](=O)[O-])cc4)o3)C=C2c2ccccc2)cc1 [Peptide 4E1RCat, 4E1RCat]",–,–,–,–,–,–,–,–,Affinity for eIF4E (eIF4E): micromolar range
CC(=O)N[C@@H](CCCCN)C(=O)N[C@@H](CCCCN)C(=O)N[C@@H](CCCNC(=N)N)C(=O)N[C@@H](Cc1ccc(O)cc1)C(=O)N[C@@H](CO)C(=O)N[C@@H](CCCNC(=N)N)C(=O)N[C@@]1(C)CCCC=CCCC[C@@](C)(C(=O)N[C@@H](Cc2ccccc2)C(=O)N[C@@H](CCCNC(=N)N)C(=O)N[C@@H](CCCNC(=N)N)C(=O)N[C@@H](CCCNC(=N)N)C(N)=O)NC(=O)[C@H](CC(C)C)NC(=O)[C@H](CC(C)C)NC(=O)[C@H](CCC(N)=O)NC1=O [sTIP-09] (Ac-KKRYSR[S5]QLL[S5]FRRR-NH2; staple 7-11),2.2e+06 ± 3e+11,7.8 ± 1.9,0.016 ± 3e-05,68,68.8 ± 13.8,–,–,–,–
